Reference: patent EP3744709B1, “NEW CRYSTAL FORM OF TEMBOTRIONE” (ANHUI JIUYI AGRICULTURE CO., LTD., priority 2018, dated 2020)
≈ marks a conversion by molar mass, not a printed value.

Legend:
[1] = Dissolution rate test (suspension in methanol/water with temperature cycling, decomposition after 14 days); assay type: physicochemical; conditions: suspended in methanol : water 1 : 5 (volume), 10-30° C, 14 days later; for decomposition rate: temperature periodically changed at 0.5K/min
Experimental: Further, in the present disclosure, the dissolution rate of crystal from D of tembotrione was tested as following: the crystal form D of tembotrione was suspended in a mixture of methanol and water (the volume ratio of methanol : water was 1 : 5) at a temperature of 10-30° C, and the temperature was changed at a rate of 0.5K/min. […] Crystal forms A, B, C and D of tembotrione were suspended in a mixture of methanol and water (the volume ratio of methanol to water was 1 : 5) at a temperature of 10-30° C, and the temperature was periodically changed at a rate of 0.5K/min.

physchem = assay type: physicochemical; conditions: for solubility: 25 °C, thermodynamic from solid; for Solubility, water: pH 4
Experimental: At 25±2°C, 100mL (which may be scaled down) solvent was added in a beaker. A certain mass of crystal forms A, B, C and D of tembotrione were weighted (to ensure insufficient dissolution, tembotrione may be weighted more than once if necessary and the total mass was calculated). The solute was gradually added, continuously stirred and sufficiently dissolved until the solution was exactly saturated (if there was solid precipitation, it was filtrated out and dried, and put back to the undissolved solid). Total mass of the undissolved solid was weighted to calculate the mass of the dissolved solid in 100mL (100g) solvent, i.e., the solubility of the solid in the solvent at the temperature. In the present disclosure, solubility of crystal forms A, B, C and D of tembotrione in several common solvents were tested, and the results were shown in Table 2. Table 2 Solubility of crystal forms A, B, C and D of tembotrione in different solvents

Which decomposition rate [1] does the source give for `CS(=O)(=O)c1ccc(C(=O)C2C(=O)CCCC2=O)c(Cl)c1COCC(F)(F)F` [crystal form A, 2-[2-chloro-4-methylsulfonyl-3-(2,2,2-trifluoroethoxymethyl)benzoyl]cyclohexane-1,3-dione] here?
The decomposition rate was 0.1%.

What about the solubility (physchem; organic solvent or mixture, methanol) of the same compound?
Its solubility is 8600 µg/mL (≈ 19.5 mM).

What about the solubility (physchem; organic solvent or mixture, toluene) of the same compound?
Its solubility is 80000 µg/mL (≈ 181 mM).

And the solubility (physchem; pH 4, aqueous buffer, water)?
Its solubility is 260 µg/mL (≈ 0.59 mM).

With `CS(=O)(=O)c1ccc(C(=O)C2C(=O)CCCC2=O)c(Cl)c1COCC(F)(F)F` [crystal form D, 2-[2-chloro-4-methylsulfonyl-3-(2,2,2-trifluoroethoxymethyl)benzoyl]cyclohexane-1,3-dione] as the compound, how does the dissolution rate ([1]; 0.5K/min) read?
The dissolution rate was “slow”.

What about the decomposition rate [1] of the same compound?
The decomposition rate was 0.06%.

And the “Solubility, methanol” value (physchem)?
Its value is 8200 µg/mL (≈ 18.6 mM).

And the “Solubility, toluene” value (physchem)?
The value was 75700 µg/mL (≈ 172 mM).

What about the “Solubility, water” value (physchem) of the same compound?
The value was 220 µg/mL (≈ 0.499 mM).

For `CS(=O)(=O)c1ccc(C(=O)C2C(=O)CCCC2=O)c(Cl)c1COCC(F)(F)F` [crystal form C, 2-[2-chloro-4-methylsulfonyl-3-(2,2,2-trifluoroethoxymethyl)benzoyl]cyclohexane-1,3-dione], which decomposition rate [1] is on record?
Its decomposition rate is 0.15%.

And the “Solubility, methanol” value (physchem)?
Its value is 8500 µg/mL (≈ 19.3 mM).

What about the “Solubility, toluene” value (physchem) of the same compound?
The value was 80200 µg/mL (≈ 182 mM).

What about the “Solubility, water” value (physchem) of the same compound?
Its value is 250 µg/mL (≈ 0.567 mM).

Which results are given for `CS(=O)(=O)c1ccc(C(=O)C2C(=O)CCCC2=O)c(Cl)c1COCC(F)(F)F` [crystal form B, 2-[2-chloro-4-methylsulfonyl-3-(2,2,2-trifluoroethoxymethyl)benzoyl]cyclohexane-1,3-dione]?
decomposition rate [1]: 0.4%; Solubility, methanol (physchem): 8800 µg/mL (≈ 20 mM); Solubility, toluene (physchem): 81000 µg/mL (≈ 184 mM); Solubility, water (physchem): 280 µg/mL (≈ 0.635 mM)
